Our source for the Activity and EC50 values is ChEMBL document CHEMBL1149732, “New bioactive metabolites from a freshwater isolate of the fungus Kirschsteiniothelia sp” (1992).

For assay [1], the system named is Bacillus subtilis. Nature of the assay: Antimicrobial activity against Bacillus subtilis at 5 ug/disk by disk assay. Format: functional, organism-based.
Assay [2] concerns Staphylococcus aureus. Nature of the assay: Antimicrobial activity against Staphylococcus aureus at 1 ug/disk by disk assay. Format: functional, organism-based.
For the next assay, the system named is A549. Nature of the assay: Cytotoxicity against human A549 cells. In kind it is functional. The following applies: read-out: ED50 (the source's name).
In assay [3] the test system is Bacillus subtilis. Briefly: Antimicrobial activity against Bacillus subtilis at 1 ug/disk by disk assay. Format: functional, organism-based.
The subject of another assay is HT-29. Nature of the assay: Cytotoxicity against human HT-29 cells. In kind it is functional. The following applies: read-out: ED50 (the source's name).
The next assay concerns MCF7. Briefly: Cytotoxicity against human MCF7 cells. Format: functional. The following applies: read-out: ED50 (the source's name).
Assay [4] has as its system Staphylococcus aureus. Briefly: Antimicrobial activity against Staphylococcus aureus at 10 ug/disk by disk assay. Format: functional, organism-based.

SMILES strings stand for the structures. Values after ≈ are worked out from the molar mass of the structure shown. Active and inactive are the calls of the source. The rule behind the calls is not given here.

Consider `Cc1cc(O)c(Cl)c(Oc2c(Cl)c(C)cc(O)c2Cl)c1`, for which the outcome in the assay on Bacillus subtilis [1] was Active.
Turning to `Cc1cc(O)c(Cl)c(Oc2c(Cl)c(C)cc(O)c2Cl)c1Cl`, the outcome in the assay with Staphylococcus aureus [2] was Active.
`COC1=CC(=O)c2c(cc(OC)c(C(C)C3=C(O)C(=O)c4cc(O)c(C(C)=O)c(O)c4C3=O)c2O)C1=O` (configuration not stated) [KIRSCHSTEININ]: the results for the EC50 with A549, in the assay with HT-29 and in the assay on MCF7 were 3.1 µg/mL (≈ 6.1 µM), 2.7 µg/mL (≈ 5.31 µM) and 5.2 µg/mL (≈ 10.2 µM), respectively. Also, the outcome in the assay with Bacillus subtilis [3] and in the assay with Staphylococcus aureus [4] was Active.
